Structures can show the parent of a compound that is named as a salt.

This passage reports Z.CTG results from patent publication US20230398130A1, “METHODS AND COMPOSITIONS FOR DIFFERENTIATING STEM CELLS” (Massachusetts Institute of Technology, priority 2020, published 2023).

For the assay, the system named is ISC-enriched organoids. Briefly: Primary screen, 384-well 2.5-D organoid differentiation (ENR+CD, 6 days, Target Selective Inhibitor Library, vs whole-plate median): ATP (CellTiter-Glo 3D, CTG).
Where [1] appears, read: primary screen, dose 0.08 uM, standard z score of FC.
The mark [2] stands for this setting: primary screen, dose 0.40 uM, standard z score of FC.
[3] abbreviates: primary screen, dose 2.00 uM, standard z score of FC.
The mark [4] stands for this setting: primary screen, dose 10.00 uM, standard z score of FC.
Where [5] appears, read: Dose 10.00 uM, standard z score of FC.
The mark [6] stands for this setting: Dose 0.08 uM, standard z score of FC.
[7] abbreviates: Dose 0.40 uM, standard z score of FC.
Setting [8] is: Dose 2.00 uM, standard z score of FC.
Setting [9] is: Dose 0.40 uM, primary screen, standard z score.
The mark [10] stands for this setting: Dose 2.00 uM, primary screen, standard z score.
Setting [11] is: Dose 10.00 uM, primary screen, standard z score.

For the molecule `Cc1c(-c2ccc(O)cc2)n(Cc2ccc(OCCN3CCCCCC3)cc2)c2ccc(O)cc12` [Bazedoxifene HCl], the Z.CTG is, setting by setting: under setting [1], 1.009; under setting [2], 0.873; under setting [3], −1.862; under setting [4], −2.741.

Take `COc1c(O)cc2c(c1O)[C@@H]1O[C@H](CO)[C@@H](O)[C@H](O)[C@H]1OC2=O` [Bergenin]: the Z.CTG was found to be 0.687 under setting [1], 0.585 under setting [2], 0.491 under setting [3] and 0.821 under setting [4].

Take `CC[C@H](NC(=O)[C@H](C)NC)C(=O)N1C[C@@H](O)C[C@H]1Cc1c(-c2[nH]c3cc(F)ccc3c2C[C@@H]2C[C@H](O)CN2C(=O)[C@H](CC)NC(=O)[C@H](C)NC)[nH]c2cc(F)ccc12` [Birinapant]: the Z.CTG is −0.615 under setting [1], 0.226 under setting [2], 0.542 under setting [3] and 0.293 under setting [4].

`CC(C)NCC(O)COc1ccc(COCCOC(C)C)cc1` (stereo not drawn) [Bisoprolol fumarate] came in with a Z.CTG under setting [1] of −0.249, a Z.CTG under setting [2] of −0.136, a Z.CTG under setting [3] of −0.048 and a Z.CTG under setting [4] of 0.139.

As to `COc1ccccc1Oc1c(NS(=O)(=O)c2ccc(C(C)(C)C)cc2)nc(-c2ncccn2)nc1OCCO` [Bosentan Hydrate], the Z.CTG by setting is: under setting [1], 0.487; under setting [2], 0.495; under setting [3], 0.288; under setting [4], 0.204.

With `CCN[C@H]1CN(CCCOC)S(=O)(=O)c2sc(S(N)(=O)=O)cc21` [Brinzolamide], the Z.CTG by setting is: under setting [1], −0.017; under setting [3], 0.282.

As to `CCCCN1CCCCC1C(=O)Nc1c(C)cccc1C` (stereo not drawn) [Bupivacaine HCl], the Z.CTG is −0.870 under setting [5], −0.008 under setting [1], −0.517 under setting [2] and −0.717 under setting [3].

`CCNC(=O)[C@H]1O[C@@H](n2cnc3c(N)nc(NCCc4ccc(CCC(=O)O)cc4)nc32)[C@H](O)[C@@H]1O` [CGS 21680 HCl]: the Z.CTG is given as 0.724 under setting [6], 1.049 under setting [7], 0.799 under setting [8] and −3.328 under setting [5].

As to `COCCOc1ccc2c(c1)ncn2-c1ccc2cccc(N3CCC(N)CC3)c2n1` [CP-673451], the Z.CTG runs as follows: under setting [6], 0.166; under setting [7], 0.445; under setting [8], 0.018; under setting [5], −0.616.

Molecule `O=C(/C=C/c1ccc(O)c(O)c1)OCCc1ccccc1` [Caffeic Acid Phenethyl Ester] came in with a Z.CTG under setting [6] of 0.627, a Z.CTG under setting [7] of −0.026, a Z.CTG under setting [8] of −0.152 and a Z.CTG under setting [5] of −1.221.

For `C[C@H](CS)C(=O)N1CCC[C@H]1C(=O)O` [Captopril], the Z.CTG runs as follows: under setting [6], −0.134; under setting [7], 0.257; under setting [8], 0.294; under setting [5], 0.255.

As for `COc1ccccc1OCCNCC(O)COc1cccc2[nH]c3ccccc3c12` (stereo not drawn) [Carvedilol], the Z.CTG is, setting by setting: under setting [6], 0.136; under setting [7], −0.034; under setting [8], −0.360; under setting [5], −0.577.

For the molecule `Cc1ccc(-c2cc(C(F)(F)F)nn2-c2ccc(S(N)(=O)=O)cc2)cc1` [Celecoxib], the Z.CTG by setting is: under setting [6], −0.082; under setting [7], −0.714; under setting [8], −0.282; under setting [5], −0.306.

The molecule `COc1ccc([C@]2(C#N)CC[C@@H](C(=O)O)CC2)cc1OC1CCCC1` [Cilomilast] displayed a Z.CTG under setting [6] of −0.799, a Z.CTG under setting [7] of −0.807, a Z.CTG under setting [8] of −0.562 and a Z.CTG under setting [5] of −0.458.

Molecule `C[C@@H](NCCCc1cccc(C(F)(F)F)c1)c1cccc2ccccc12` [Cinacalcet HCl] showed a Z.CTG under setting [6] of −1.061, a Z.CTG under setting [7] of −0.712, a Z.CTG under setting [8] of −0.028 and a Z.CTG under setting [5] of −1.076.

For `C=C1C(=O)O[C@@H]2/C=C(\C)CC/C=C(\C)CC[C@@H]12` [Costunolide], the Z.CTG reads like this: under setting [6], −0.070; under setting [7], 0.288; under setting [8], 0.120; under setting [5], 0.019.

Consider `CC(=O)O[C@]1(C(C)=O)CC[C@H]2[C@@H]3C=C(Cl)C4=CC(=O)[C@@H]5C[C@@H]5[C@]4(C)[C@H]3CC[C@@]21C` [Cyproterone Acetate], for which the Z.CTG is listed as −0.263 under setting [6], 0.122 under setting [7], −0.341 under setting [8] and −0.414 under setting [5].

For the molecule `COc1cc2nc(N3CCN(C(=O)C4COc5ccccc5O4)CC3)nc(N)c2cc1OC` (stereo not drawn) [Doxazosin Mesylate], the Z.CTG is 0.171 under setting [6], −0.037 under setting [7], 0.349 under setting [8] and 0.179 under setting [5].

As to `O=C(N/N=C/c1ccc(O)c(O)c1)c1cc2ccccc2cc1O` [Dynasore], the Z.CTG by setting is: under setting [6], −0.592; under setting [7], −0.604; under setting [8], −0.364; under setting [5], −0.026.

Consider `CCN(c1cc(-c2ccc(CN3CCOCC3)cc2)cc(C(=O)NCc2c(C)cc(C)[nH]c2=O)c1C)C1CCOCC1` [EPZ-6438], for which the Z.CTG runs as follows: under setting [6], 0.107; under setting [7], 0.178; under setting [8], −0.163; under setting [5], 0.802.

With `CCCCCCCCCCCC1=C(O)C(=O)C=C(O)C1=O` [Embelin], the Z.CTG was −0.770 under setting [6], −1.728 under setting [7], −0.776 under setting [8] and −1.720 under setting [5].

For `CCN(CC)C(=O)/C(C#N)=C/c1cc(O)c(O)c([N+](=O)[O-])c1` [Entacapone], the Z.CTG under setting [6] is −0.275, the Z.CTG under setting [7] is listed as −0.154, the Z.CTG under setting [8] was determined as 0.493 and the Z.CTG under setting [5] is on record as −0.935.

For `CCOc1ccccc1-n1c(C(C)N2CCN(C(=O)COc3ccc(Cl)cc3)CC2)nc2ccccc2c1=O` (stereo not drawn) [Erastin], the Z.CTG was 0.537 under setting [6], 0.681 under setting [7], 0.907 under setting [8] and 0.711 under setting [5].

As to `COc1ccc2nc([S@@+]([O-])Cc3ncc(C)c(OC)c3C)[nH]c2c1` [Esomeprazole Sodium], the Z.CTG under setting [6] amounted to 0.689, the Z.CTG under setting [7] came out at 0.475, the Z.CTG under setting [8] was 0.923 and the Z.CTG under setting [5] was 0.648.

For `CCc1cccc2c3c([nH]c12)C(CC)(CC(=O)O)OCC3` (stereo not drawn) [Etodolac], the Z.CTG is, setting by setting: under setting [6], −0.147; under setting [7], 0.117; under setting [8], 0.020; under setting [5], 0.054.

For the molecule `Cc1nc(C(=O)NCC(=O)O)c(O)c2ccc(Oc3ccccc3)cc12` [FG-4592], the Z.CTG under setting [6] was 0.782, the Z.CTG under setting [7] is listed as 0.679, the Z.CTG under setting [8] was found to be 0.692 and the Z.CTG under setting [5] is on record as 0.568.

Take `CCOC(=O)C1=C(C)NC(C)=C(C(=O)OC)C1c1cccc(Cl)c1Cl` (stereo not drawn) [Felodipine]: the Z.CTG is −0.187 under setting [6], −0.763 under setting [7], 0.025 under setting [8] and 0.078 under setting [5].

For the molecule `CC(C)n1c(/C=C/C(O)CC(O)CC(=O)O)c(-c2ccc(F)cc2)c2ccccc21` (stereo not drawn) [Fluvastatin Sodium], the Z.CTG is −0.384 under setting [6], −1.151 under setting [7], −2.653 under setting [8] and −4.206 under setting [5].

Turning to `COCCCC/C(=N\OCCN)c1ccc(C(F)(F)F)cc1` [Fluvoxamine maleate], the Z.CTG reads like this: under setting [6], 0.274; under setting [7], 0.607; under setting [8], 0.504; under setting [5], 0.330.

`C=C[C@@]1(C)CC(=O)[C@]2(O)[C@@]3(C)[C@@H](O)CCC(C)(C)[C@@H]3[C@H](O)[C@H](OC(C)=O)[C@@]2(C)O1` [Forskolin]: the Z.CTG by setting is: under setting [6], −0.508; under setting [7], −0.418; under setting [8], −0.789; under setting [5], −0.284.

For `C[C@]12CC[C@@H]3c4ccc(O)cc4C[C@@H](CCCCCCCCC[S+]([O-])CCCC(F)(F)C(F)(F)F)[C@H]3[C@@H]1CC[C@@H]2O` (stereo partly drawn) [Fulvestrant], the Z.CTG under setting [6] is 0.285, the Z.CTG under setting [7] is reported as −0.150, the Z.CTG under setting [8] came out at 0.339 and the Z.CTG under setting [5] is on record as −0.488.

With `COc1ccc2c(c1)C(=O)N(CCc1ccc(S(=O)(=O)NC(=O)NC3CCCCC3)cc1)C(=O)C2(C)C` [Gliquidone], the Z.CTG worked out at 0.297 under setting [6], 0.247 under setting [9], 0.588 under setting [10] and 0.320 under setting [11].

For `CN1C2CCCC1CC(NC(=O)c1nn(C)c3ccccc13)C2` (stereo not drawn) [Granisetron HCl], the Z.CTG reads like this: (Dose 0.08 uM, primary screen, standard z score) −0.512; under setting [9], −0.205; under setting [10], −0.426; under setting [11], −0.710.

Consider `Cc1cc(OCc2nnc(SC3CCCC3)n2-c2cccnc2)ccc1-c1ccc(S(C)(=O)=O)cc1` [NMS-873], for which the Z.CTG under setting [6] is given as 0.416, the Z.CTG under setting [7] is −0.122, the Z.CTG under setting [8] was −2.173 and the Z.CTG under setting [5] was −3.683.

Take `COc1ccccc1N1CCN(CC(O)COc2cccc3ccccc23)CC1` (stereo not drawn) [Naftopidil]: the Z.CTG by setting is: under setting [6], −0.093; under setting [7], −0.384; under setting [8], −0.426; under setting [5], −0.316.
